Assay results taken from patent US20230027066A1 (Urovant Sciences GmbH, priority 2019, published 2023).
“And” between values parts separate entries of the source, which are not always exact repeats. Equal values may be shown once.

Experiments:
Format in all cases: in vivo, human
[1] = system: males and females with OAB; assay: Phase 3 study of vibegron 50 mg and 100 mg, 12 weeks, efficacy
[2] = QTc study comparison mirabegron and vibegron, BP and HR in healthy subjects; settings: for HR change at Cmax, placebo adjusted / SBP change 24-hour average, placebo adjusted / SBP change at Cmax, placebo adjusted: healthy subjects
[3] = drug interaction study of vibegron and rifampin, pharmacokinetics
[4] = thorough QT study, single doses of 200 and 400 mg, healthy volunteers
[5] = vibegron exposure in special populations (renal impairment, CYP3A/P-gp inhibitor, elderly, females)
[6] = Phase 1 ABPM study, ambulatory blood pressure and heart rate in OAB subjects, 28 days
Description: The objectives and endpoints were as described below. “Mean daytime” ABPM endpoints are calculated as the mean of all valid ABPM readings while the subject was awake during the 24-hour monitoring session. “Mean 24 hr” ABPM endpoints are calculated as the mean of all valid ABPM readings during the 24 hr monitoring session.
For the analysis of the ABPM endpoints (CFB to Day 29 of systolic and diastolic blood pressure, and heart rate), a generalized linear model (GLM) was used. […] The analysis model for each efficacy endpoint included terms for treatment, age group (≤55 vs >55 years), sex (Male vs Female), and pre-existing hypertension (Yes vs No), and baseline score.
Primary inferences were drawn from treatment differences for the CFB at Day 29 from the GLM. […] To test the primary hypothesis in Section 85, the upper limit of the two-sided 90% confidence interval was compared to 3.5, and the null hypothesis was rejected if the upper limit was strictly less than 3.5.
The 24-mean ambulatory baseline for systolic and diastolic blood pressure, and heart rate was the arithmetic mean of all valid measurements between the time of cuff-fitting on Day −1 to cuff-removal on Day 1. The 24-hour mean at Day 29 was arithmetic mean of all valid measurements between the time of cuff-fitting on Day 28 to cuff removal on Day 29.
The maximum SBP, DBP and HR in the tmax window at baseline was the maximum of the hourly means of valid measurements from 0.5 to 6.5 hours after the time of cuff fitting on Day −1. On Day 28, the maximum SBP, DBP and HR in the tmax window was the maximum of the hourly means of valid measurements from 0.5 to 6.5 hours after dose.
The mean daytime ambulatory baseline for systolic and diastolic blood pressure, and heart rate was the arithmetic mean of all measurements taken during the time interval in which the subject was awake. The same definition was applied to Day 29 measurements.

[7] = vibegron 75 mg single dose + rifampin 600 mg QD
[8] = vibegron 75 mg single dose alone
[9] = vibegron 75 mg/day, 4 weeks, full analysis set

O=C(Nc1ccc(C[C@@H]2CC[C@H]([C@H](O)c3ccccc3)N2)cc1)[C@@H]1CCc2nccc(=O)n21 [Vibegron, (6S)-N-[4-[[(2S,5R)−5-[(R)-hydroxy(phenyl)methyl]pyrrolidin−2-yl]methyl]phenyl]−4-oxo−7,8-dihydro−6H-pyrrolo[1,2-a]pyrimidine−6-carboxamide]
Micturitions: LS mean placebo adjusted change from baseline (95% CI) at Week 12 ([1]; vibegron 50 mg once daily): −0.86 (−1.12, −0.60)
Total incontinence episodes: LS mean placebo adjusted change from baseline (95% CI) at Week 12 ([1]; vibegron 50 mg once daily): −0.30 (−0.49, −0.12)
Urge urinary incontinence episodes: LS mean placebo adjusted change from baseline (95% CI) at Week 12 ([1]; vibegron 50 mg once daily): −0.27 (−0.44, −0.10)
Urgency episodes: LS mean placebo adjusted change from baseline (95% CI) at Week 12 ([1]; vibegron 50 mg once daily): −0.51 (−0.76, −0.25)
Micturitions: LS mean placebo adjusted change from baseline (95% CI) at Week 12 ([1]; vibegron 100 mg once daily): −0.81 (−1.07, −0.55)
Total incontinence episodes: LS mean placebo adjusted change from baseline (95% CI) at Week 12 ([1]; vibegron 100 mg once daily): −0.43 (−0.61, −0.24)
Urge urinary incontinence episodes: LS mean placebo adjusted change from baseline (95% CI) at Week 12 ([1]; vibegron 100 mg once daily): −0.39 (−0.55, −0.22)
Urgency episodes: LS mean placebo adjusted change from baseline (95% CI) at Week 12 ([1]; vibegron 100 mg once daily): −0.67 (−0.93, −0.42)
SBP change 24-hour average, 75 mg estimate, placebo adjusted ([2]; 75 mg estimate from QT study): 24-hour average: 0.1 mmHg
SBP change at Cmax, 75 mg estimate, placebo adjusted ([2]; 75 mg estimate from QT study): At Cmax: 0.4 mmHg
HR change at Cmax, placebo adjusted ([2]; 200 mg single-dose): 4.1 BPM
SBP change 24-hour average, placebo adjusted ([2]; 200 mg single-dose): +0.7 mmHg
SBP change at Cmax, placebo adjusted ([2]; 200 mg single-dose): +2.2 mmHg
HR change at Cmax, placebo adjusted ([2]; 400 mg single-dose): 11.2 BPM
SBP change 24-hour average, placebo adjusted ([2]; 400 mg single-dose): 1.3 mmHg
SBP change at Cmax, placebo adjusted ([2]; 400 mg single-dose): +3.97 mmHg
AUC(0-t) ([3]; both sexes, human, in vivo, 75 mg, read-out: AUC0-t, geometric mean (% CV)): 1160 ng·h/mL
Cmax ([3]; both sexes, human, in vivo, 75 mg, read-out: Cmax, geometric mean (% CV)): 82.3 ng/mL
AUC(0-inf) ([3]; both sexes, human, in vivo, oral, 75 mg, read-out: AUC0-∞, geometric mean (% CV)): 1310 ng·h/mL
half-life ([3]; both sexes, human, in vivo, oral, 75 mg, read-out: t1/2, geometric mean (% CV) (converted)): 84 h
CL/F, geometric mean (% CV) [3, 7]: 57.3 (30.1) L/hr
V/F, geometric mean (% CV) [3, 7]: 6140 (47.0) L
CL/F, geometric mean (% CV) [3, 8]: 57.2 (39.7) L/hr
V/F, geometric mean (% CV) [3, 8]: 6930 (48.6) L
effect on QTc or blood pressure in thorough QT study ([4]; human, in vivo): no clinically meaningful effect on QTc or blood pressure
AUC, mean ± SD ([4]; vibegron 200 mg single dose): 2430 ± 974 ng·h/mL
Maximum mean placebo corrected change from baseline RR interval ([4]; vibegron 200 mg single dose): -84.36 ms
Maximum mean placebo corrected change from baseline diastolic BP ([4]; vibegron 200 mg single dose): 2.42 mmHg
Maximum mean placebo corrected change from baseline systolic BP ([4]; vibegron 200 mg single dose): 2.20 mmHg
AUC, mean ± SD ([4]; vibegron 400 mg single dose): 6800 ± 2300 ng·h/mL
Maximum mean placebo corrected change from baseline RR interval ([4]; vibegron 400 mg single dose): -162.45 ms
Maximum mean placebo corrected change from baseline diastolic BP ([4]; vibegron 400 mg single dose): 3.99 mmHg
Maximum mean placebo corrected change from baseline systolic BP ([4]; vibegron 400 mg single dose): 3.97 mmHg
higher Cmax in elderly and females than healthy young males ([5]; elderly and females): 50-70%
mean increase in AUC in subjects with moderate renal impairment vs normal renal function ([5]; moderate renal impairment): 1.6 fold
ABPM Max (0.5-6.5 h) DBP Change from Baseline to Day 28, LSMean ([6]; 75 mg, FAS): 0.63 mmHg
ABPM Max (0.5-6.5 h) DBP Change from Baseline to Day 28, Treatment Difference Vibegron-Placebo ([6]; 75 mg, FAS): 1.16 mmHg
ABPM Max (0.5-6.5 h) HR Change from Baseline to Day 28, LSMean ([6]; 75 mg, FAS): 1.76 bpm
ABPM Max (0.5-6.5 h) HR Change from Baseline to Day 28, Treatment Difference Vibegron-Placebo ([6]; 75 mg, FAS): 1.48 bpm
ABPM Max (0.5-6.5 h) SBP Change from Baseline to Day 28, LSMean ([6]; 75 mg, FAS): 1.96 mmHg
ABPM Max (0.5-6.5 h) SBP Change from Baseline to Day 28, Treatment Difference Vibegron-Placebo ([6]; 75 mg, FAS): 1.67 mmHg
ABPM Mean 24 H DBP Change from Baseline to Day 28, LSMean ([6]; 75 mg, FAS): 0.51 mmHg
ABPM Mean 24 H DBP Change from Baseline to Day 28, Treatment Difference Vibegron-Placebo ([6]; 75 mg, FAS): −0.19 mmHg
ABPM Mean 24 H HR Change from Baseline to Day 28, LSMean ([6]; 75 mg, FAS): 0.80 bpm
ABPM Mean 24 H HR Change from Baseline to Day 28, Treatment Difference Vibegron-Placebo ([6]; 75 mg, FAS): 0.96 bpm
ABPM Mean 24 H SBP Change from Baseline to Day 28, LSMean ([6]; 75 mg, FAS): 0.60 mmHg
ABPM Mean 24 H SBP Change from Baseline to Day 28, Treatment Difference Vibegron-Placebo ([6]; 75 mg, FAS): 0.57 mmHg
ABPM Mean Daytime DBP Change from Baseline to Day 28, LSMean ([6]; 75 mg, FAS): 0.50 mmHg
ABPM Mean Daytime DBP Change from Baseline to Day 28, Treatment Difference Vibegron-Placebo ([6]; 75 mg, FAS): −0.04 mmHg
ABPM Mean Daytime HR Change from Baseline to Day 28, LSMean ([6]; 75 mg, FAS): 1.08 bpm
ABPM Mean Daytime HR Change from Baseline to Day 28, Treatment Difference Vibegron-Placebo ([6]; 75 mg, FAS): 0.88 bpm
Mean Daytime ABPM SBP Change from Baseline to Day 28, LSMean ([6]; 75 mg, FAS): 0.82 mm Hg
Mean Daytime ABPM SBP Change from Baseline to Day 28, Treatment Difference Vibegron-Placebo ([6]; 75 mg, FAS): 0.81 mm Hg
Change from Baseline to Day 28 for Maximum (0.5 to 6.5 hrs) ABPM SBP, LSMean ([6]; 75 mg, PPS): 1.0 mm Hg
Change from Baseline to Day 28 for Maximum (0.5 to 6.5 hrs) ABPM SBP, Treatment Difference Vibegron-Placebo ([6]; 75 mg, PPS): 1.05 mm Hg
Mean Daytime ABPM SBP Change from Baseline to Day 28, LSMean ([6]; 75 mg, PPS): 0.19 mm Hg
Mean Daytime ABPM SBP Change from Baseline to Day 28, Treatment Difference Vibegron-Placebo ([6]; 75 mg, PPS): 0.41 mm Hg
ABPM DBP Day 28 change from baseline ≥10 mmHg, subjects ([6]; Maximum (0.5-6.5 h), FAS): 9 (9.8) n (%)
ABPM HR Day 28 change from baseline ≥10 bpm, subjects ([6]; Maximum (0.5-6.5 h), FAS): 20 (21.7) n (%)
ABPM SBP Day 28 change from baseline ≥15 mmHg, subjects ([6]; Maximum (0.5-6.5 h), FAS): 6 (6.5) n (%)
ABPM DBP Day 28 change from baseline ≥10 mmHg, subjects ([6]; Mean 24-hour, FAS): 1 (1.0) n (%)
ABPM HR Day 28 change from baseline ≥10 bpm, subjects ([6]; Mean 24-hour, FAS): 3 (3.1) n (%)
ABPM SBP Day 28 change from baseline ≥15 mmHg, subjects ([6]; Mean 24-hour, FAS): 2 (2.1) n (%)
ABPM DBP Day 28 change from baseline ≥10 mmHg, subjects ([6]; Mean Daytime, FAS): 2 (2.1) n (%)
ABPM HR Day 28 change from baseline ≥10 bpm, subjects ([6]; Mean Daytime, FAS): 3 (3.1) n (%)
ABPM SBP Day 28 change from baseline ≥15 mmHg, subjects ([6]; Mean Daytime, FAS): 2 (2.1) n (%)
effects on blood pressure (overall conclusion of ABPM study) ([6]; vibegron 75 mg, 28 days): no clinically relevant effects on blood pressure
mean change of daytime ambulatory systolic blood pressure from baseline, difference from placebo (primary endpoint) ([6]; vibegron 75 mg, 28 days): less than 1 mm Hg
mean change from baseline in daytime ambulatory systolic blood pressure ([6]; vibegron 75 mg/day, 4-week treatment, full analysis set): 0.89 mmHg
mean change of 24-hour ambulatory diastolic blood pressure from baseline, lower than placebo by ([6]; vibegron 75 mg/day, 4 weeks): 0.19 mmHg
mean change of 24-hour ambulatory heart rate from baseline ([6]; vibegron 75 mg/day, 4 weeks): about 0.80
mean change of 24-hour ambulatory heart rate from baseline, higher than placebo by ([6]; vibegron 75 mg/day, 4 weeks): 0.96 bpm
mean change of 24-hour ambulatory systolic blood pressure from baseline, higher than placebo by ([6]; vibegron 75 mg/day, 4 weeks): 0.57 mmHg
mean change of daytime ambulatory diastolic blood pressure from baseline, lower than placebo by ([6]; vibegron 75 mg/day, 4 weeks): 0.04 mmHg
mean change of daytime ambulatory heart rate from baseline ([6]; vibegron 75 mg/day, 4 weeks): about 1.08 bpm
mean change of daytime ambulatory heart rate from baseline, higher than placebo by ([6]; vibegron 75 mg/day, 4 weeks): 0.88 bpm
mean increase in 24-hour ambulatory diastolic blood pressure from baseline ([6]; vibegron 75 mg/day, 4 weeks): 0.51 mmHg
mean increase in 24-hour ambulatory systolic blood pressure from baseline ([6]; vibegron 75 mg/day, 4 weeks): 0.61 mmHg and 0.60 mmHg
mean change of daytime ambulatory systolic blood pressure from baseline, higher than placebo by [6, 9]: 0.81 mmHg
mean daytime ambulatory systolic upper bound of the 90% confidence interval (Table 103) [6, 9]: 1.11 mm Hg
mean daytime ambulatory systolic blood pressure, upper bound of 90% confidence interval of difference from placebo ([6]; vibegron 75 mg/day, 4 weeks, full analysis set (Table 101)): 2.49 mm Hg
mean change of daytime ambulatory systolic blood pressure from baseline, higher than placebo by ([6]; vibegron 75 mg/day, 4 weeks, per protocol set): 0.41 mmHg
mean daytime ambulatory systolic blood pressure, upper bound of 90% confidence interval of difference from placebo ([6]; vibegron 75 mg/day, 4 weeks, per protocol set (Table 102)): 2 mm Hg
